Measured values published in PubChem BioAssay AID1963420 (Molecular Pharmacology Branch, DTP, NCI, 2024).

System: 494315-158-R-J1-PDC complex spheroid growth, percent test/control
Assay: Anticancer human tumor 494315-158-R-J1-PDC patient-derived soft tissue sarcoma cell line growth inhibition [Asc]
Conditions: for IC50: curve of first compound; for viability, T/C: stronger effect = lower value
Method in brief: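 Complex spheroids combining tumor cells with HUVEC endothelial cells and human MSCs, at 37 degrees C, 5% CO2; agents tested alone or combined, half-log dilutions from at or near clinical Cmax, or 10 microM if Cmax unknown.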

[1] = second compound 0.01 µM, first compound 0.00316 µM
[2] = second compound 0.01 µM, first compound 0.01 µM
[3] = second compound 0.01 µM, first compound 0.0316 µM
[4] = second compound 0.01 µM, first compound 0.1 µM
[5] = second compound 0.01 µM, first compound 0.316 µM
[6] = second compound 0.01 µM, first compound 1 µM
[7] = second compound 0.0316 µM, first compound 0.00316 µM
[8] = second compound 0.0316 µM, first compound 0.01 µM
[9] = second compound 0.0316 µM, first compound 0.0316 µM
[10] = second compound 0.0316 µM, first compound 0.1 µM
[11] = second compound 0.0316 µM, first compound 0.316 µM
[12] = second compound 0.0316 µM, first compound 1 µM
[13] = second compound 0.1 µM, first compound 0.00316 µM
[14] = second compound 0.1 µM, first compound 0.01 µM
[15] = second compound 0.1 µM, first compound 0.0316 µM
[16] = second compound 0.1 µM, first compound 0.1 µM
[17] = second compound 0.1 µM, first compound 0.316 µM
[18] = second compound 0.1 µM, first compound 1 µM
[19] = second compound 0.316 µM, first compound 0.00316 µM
[20] = second compound 0.316 µM, first compound 0.01 µM
[21] = second compound 0.316 µM, first compound 0.0316 µM
[22] = second compound 0.316 µM, first compound 0.1 µM
[23] = second compound 0.316 µM, first compound 0.316 µM
[24] = second compound 0.316 µM, first compound 1 µM
[25] = second compound 1 µM, first compound 0.00316 µM
[26] = second compound 1 µM, first compound 0.01 µM
[27] = second compound 1 µM, first compound 0.0316 µM
[28] = second compound 1 µM, first compound 0.1 µM
[29] = second compound 1 µM, first compound 0.316 µM
[30] = second compound 1 µM, first compound 1 µM
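Further: compound exposure lasted seven days after spheroids formed for three days.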

Question: Which results are given for `CCN1CCN(Cc2ccc(Nc3ncc(F)c(-c4cc(F)c5nc(C)n(C(C)C)c5c4)n3)nc2)CC1` + CNC(C)C(=O)NC1CN(S(=O)(=O)c2cccc(S(=O)(=O)N3CCC4CCC(C(=O)NC(c5ccccc5)c5ccccc5)N4C(=O)C(NC(=O)C(C)NC)C3)c2)CCC2CCC(C(=O)NC(c3ccccc3)c3ccccc3)N2C1=O?
Answer: IC50 (second compound 0.01 µM): > 1000 nM; IC50 (second compound 0.0316 µM): > 1000 nM; IC50 (second compound 0.1 µM): > 1000 nM; IC50 (second compound 0.316 µM): < 3.16 nM; IC50 (second compound 1 µM): < 3.16 nM; viability, T/C [1]: 77.8%; viability, T/C [2]: 81.6%; viability, T/C [3]: 67%; viability, T/C [4]: 64.4%; viability, T/C [5]: 67.5%; viability, T/C [6]: 63.8%; viability, T/C [7]: 56.8%; viability, T/C [8]: 63.9%; viability, T/C [9]: 68.7%; viability, T/C [10]: 52.2%; viability, T/C [11]: 57.2%; viability, T/C [12]: 53.4%; viability, T/C [13]: 55.6%; viability, T/C [14]: 57.4%; viability, T/C [15]: 48.9%; viability, T/C [16]: 58.4%; viability, T/C [17]: 57.4%; viability, T/C [18]: 48.9%; viability, T/C [19]: 51.5%; viability, T/C [20]: 46.4%; viability, T/C [21]: 50.2%; viability, T/C [22]: 43.4%; viability, T/C [23]: 51.3%; viability, T/C [24]: 52.5%; viability, T/C [25]: 36.3%; viability, T/C [26]: 39.7%; viability, T/C [27]: 44.4%; viability, T/C [28]: 41.8%; viability, T/C [29]: 45.3%; viability, T/C [30]: 48.5%

Question: Which IC50 (second compound 0.01 µM) does the source give for `COc1c(OCCCN2CCOCC2)ccc2c3n(c(=NC(=O)c4cnc(N)nc4)nc12)CCN3` + CNC(C)C(=O)NC1CN(S(=O)(=O)c2cccc(S(=O)(=O)N3CCC4CCC(C(=O)NC(c5ccccc5)c5ccccc5)N4C(=O)C(NC(=O)C(C)NC)C3)c2)CCC2CCC(C(=O)NC(c3ccccc3)c3ccccc3)N2C1=O here?
Answer: 17.1 nM

Question: What about the IC50 (second compound 0.0316 µM) of the same compound?
Answer: 11 nM

Question: What about the IC50 (second compound 0.1 µM) of the same compound?
Answer: 4.59 nM

Question: What about the IC50 (second compound 0.316 µM) of the same compound?
Answer: < 3.16 nM

Question: And the IC50 (second compound 1 µM)?
Answer: < 3.16 nM

Question: What about the viability, T/C [1] of the same compound?
Answer: 65.8%

Question: And the viability, T/C [2]?
Answer: 55.1%

Question: What about the viability, T/C [3] of the same compound?
Answer: 44.7%

Question: And the viability, T/C [4]?
Answer: 22.7%

Question: What about the viability, T/C [5] of the same compound?
Answer: 16.8%

Question: What about the viability, T/C [6] of the same compound?
Answer: 8.91%

Question: And the viability, T/C [7]?
Answer: 53.5%

Question: What about the viability, T/C [8] of the same compound?
Answer: 54.3%

Question: And the viability, T/C [9]?
Answer: 37.3%

Question: What about the viability, T/C [10] of the same compound?
Answer: 25.5%

Question: And the viability, T/C [11]?
Answer: 14%

Question: And the viability, T/C [12]?
Answer: 9.58%

Question: And the viability, T/C [13]?
Answer: 52.3%

Question: What about the viability, T/C [14] of the same compound?
Answer: 45.3%

Question: And the viability, T/C [15]?
Answer: 30.1%

Question: What about the viability, T/C [16] of the same compound?
Answer: 18.9%

Question: What about the viability, T/C [17] of the same compound?
Answer: 12.8%

Question: And the viability, T/C [18]?
Answer: 9.36%

Question: And the viability, T/C [19]?
Answer: 38.2%

Question: What about the viability, T/C [20] of the same compound?
Answer: 39.2%

Question: What about the viability, T/C [21] of the same compound?
Answer: 28.4%

Question: And the viability, T/C [22]?
Answer: 16.8%

Question: And the viability, T/C [23]?
Answer: 11.8%

Question: And the viability, T/C [24]?
Answer: 9.4%

Question: What about the viability, T/C [25] of the same compound?
Answer: 47.4%

Question: And the viability, T/C [26]?
Answer: 35.2%

Question: What about the viability, T/C [27] of the same compound?
Answer: 25.2%

Question: What about the viability, T/C [28] of the same compound?
Answer: 18.6%

Question: What about the viability, T/C [29] of the same compound?
Answer: 9.45%

Question: And the viability, T/C [30]?
Answer: 7.69%

Question: What does the source list for `NC(=O)C(=Cn1cnc(-c2cc(C(F)(F)F)cc(C(F)(F)F)c2)n1)c1cncnc1` + CNC(C)C(=O)NC1CN(S(=O)(=O)c2cccc(S(=O)(=O)N3CCC4CCC(C(=O)NC(c5ccccc5)c5ccccc5)N4C(=O)C(NC(=O)C(C)NC)C3)c2)CCC2CCC(C(=O)NC(c3ccccc3)c3ccccc3)N2C1=O?
Answer: IC50 (second compound 0.01 µM): 50.5 nM; IC50 (second compound 0.0316 µM): 12 nM; IC50 (second compound 0.1 µM): 9.95 nM; IC50 (second compound 0.316 µM): 1.27 nM; IC50 (second compound 1 µM): < 0.949 nM; viability, T/C (second compound 0.01 µM, first compound 0.000949 µM): 73.4%; viability, T/C (second compound 0.01 µM, first compound 0.003 µM): 70.6%; viability, T/C (second compound 0.01 µM, first compound 0.00949 µM): 59.4%; viability, T/C (second compound 0.01 µM, first compound 0.03 µM): 54.2%; viability, T/C (second compound 0.01 µM, first compound 0.0949 µM): 46.8%; viability, T/C (second compound 0.01 µM, first compound 0.3 µM): 7.92%; viability, T/C (second compound 0.0316 µM, first compound 0.000949 µM): 58.4%; viability, T/C (second compound 0.0316 µM, first compound 0.003 µM): 58.8%; viability, T/C (second compound 0.0316 µM, first compound 0.00949 µM): 51.9%; viability, T/C (second compound 0.0316 µM, first compound 0.03 µM): 41.4%; viability, T/C (second compound 0.0316 µM, first compound 0.0949 µM): 27.8%; viability, T/C (second compound 0.0316 µM, first compound 0.3 µM): 7.91%; viability, T/C (second compound 0.1 µM, first compound 0.000949 µM): 51%; viability, T/C (second compound 0.1 µM, first compound 0.003 µM): 64.5%; viability, T/C (second compound 0.1 µM, first compound 0.00949 µM): 46.6%; viability, T/C (second compound 0.1 µM, first compound 0.03 µM): 39.5%; viability, T/C (second compound 0.1 µM, first compound 0.0949 µM): 23.5%; viability, T/C (second compound 0.1 µM, first compound 0.3 µM): 5.3%; viability, T/C (second compound 0.316 µM, first compound 0.000949 µM): 49.3%; viability, T/C (second compound 0.316 µM, first compound 0.003 µM): 50.1%; viability, T/C (second compound 0.316 µM, first compound 0.00949 µM): 43.8%; viability, T/C (second compound 0.316 µM, first compound 0.03 µM): 33.6%; viability, T/C (second compound 0.316 µM, first compound 0.0949 µM): 24.4%; viability, T/C (second compound 0.316 µM, first compound 0.3 µM): 5.39%; viability, T/C (second compound 1 µM, first compound 0.000949 µM): 35.7%; viability, T/C (second compound 1 µM, first compound 0.003 µM): 36.7%; viability, T/C (second compound 1 µM, first compound 0.00949 µM): 40.4%; viability, T/C (second compound 1 µM, first compound 0.03 µM): 35.8%; viability, T/C (second compound 1 µM, first compound 0.0949 µM): 21.8%; viability, T/C (second compound 1 µM, first compound 0.3 µM): 6.84%

Question: How did the IC50 (second compound 0.01 µM) turn out when `NC1CCC(NC2CC2c2ccccc2)CC1` (stereo not given) + CNC(C)C(=O)NC1CN(S(=O)(=O)c2cccc(S(=O)(=O)N3CCC4CCC(C(=O)NC(c5ccccc5)c5ccccc5)N4C(=O)C(NC(=O)C(C)NC)C3)c2)CCC2CCC(C(=O)NC(c3ccccc3)c3ccccc3)N2C1=O was run?
Answer: > 100 nM

Question: What about the IC50 (second compound 0.0316 µM) of the same compound?
Answer: > 100 nM

Question: And the IC50 (second compound 0.1 µM)?
Answer: > 100 nM

Question: What about the IC50 (second compound 0.316 µM) of the same compound?
Answer: < 0.316 nM

Question: And the IC50 (second compound 1 µM)?
Answer: < 0.316 nM

Question: What about the viability, T/C (second compound 0.01 µM, first compound 0.000316 µM) of the same compound?
Answer: 72.2%

Question: And the viability, T/C (second compound 0.01 µM, first compound 0.001 µM)?
Answer: 70.7%

Question: What about the viability, T/C [1] of the same compound?
Answer: 71.7%

Question: And the viability, T/C [2]?
Answer: 77.2%

Question: And the viability, T/C [3]?
Answer: 77.4%

Question: And the viability, T/C [4]?
Answer: 66.1%

Question: And the viability, T/C (second compound 0.0316 µM, first compound 0.000316 µM)?
Answer: 65.7%

Question: And the viability, T/C (second compound 0.0316 µM, first compound 0.001 µM)?
Answer: 67.8%

Question: And the viability, T/C [7]?
Answer: 55.7%

Question: And the viability, T/C [8]?
Answer: 70.6%

Question: What about the viability, T/C [9] of the same compound?
Answer: 62.3%

Question: What about the viability, T/C [10] of the same compound?
Answer: 57.3%

Question: And the viability, T/C (second compound 0.1 µM, first compound 0.000316 µM)?
Answer: 53.5%

Question: And the viability, T/C (second compound 0.1 µM, first compound 0.001 µM)?
Answer: 60.9%

Question: What about the viability, T/C [13] of the same compound?
Answer: 47.3%

Question: What about the viability, T/C [14] of the same compound?
Answer: 55.5%

Question: What about the viability, T/C [15] of the same compound?
Answer: 52.4%

Question: What about the viability, T/C [16] of the same compound?
Answer: 64.5%

Question: And the viability, T/C (second compound 0.316 µM, first compound 0.000316 µM)?
Answer: 45.6%

Question: And the viability, T/C (second compound 0.316 µM, first compound 0.001 µM)?
Answer: 48.3%

Question: What about the viability, T/C [19] of the same compound?
Answer: 42.1%

Question: And the viability, T/C [20]?
Answer: 43.9%

Question: What about the viability, T/C [21] of the same compound?
Answer: 43.7%

Question: And the viability, T/C [22]?
Answer: 44.7%

Question: What about the viability, T/C (second compound 1 µM, first compound 0.000316 µM) of the same compound?
Answer: 38.8%

Question: What about the viability, T/C (second compound 1 µM, first compound 0.001 µM) of the same compound?
Answer: 41.9%

Question: What about the viability, T/C [25] of the same compound?
Answer: 42.9%

Question: What about the viability, T/C [26] of the same compound?
Answer: 40.2%

Question: And the viability, T/C [27]?
Answer: 35.7%

Question: What about the viability, T/C [28] of the same compound?
Answer: 46.9%
